Source: publication PMC8962522, “Direct interaction of TrkA/CD44v3 is essential for NGF-promoted aggressiveness of breast cancer cells” (Journal of Experimental & Clinical Cancer Research : CR, 2022)
Entries after “also recorded” stand apart in the source; their conditions may differ.

Tested on: RhoA in MDA-MB-231 cells
Experiment: AB-FRET RhoA activation, MDA-MB-231 with RhoA biosensor
Format: cell-based
Procedure: MDA-MB-231 native or KD cells were seeded (5000 cells/well; ovn, 37 °C) in a chambered coverglass system (Lab-Tek®) coated with a type I collagen matrix (100 μg/mL; Corning). These cells were transfected using the pBabe-puro-RhoA plasmid (0.15 μg; Addgene plasmid #12602) diluted in a buffer solution (JetOPTIMUS® buffer) and a transfection agent (TA; 10 min). The mixture was incorporated into the culture medium (4 h; 37 °C). Two to three hours before image acquisition, the cells expressing the RhoA biosensor were starved in fresh EMEM containing 0.1% FBS and no phenol red. […]
To further elucidate the mechanism of action of CD44v3 mimetic peptide 4, we studied its effect on the TrkA signaling pathway. […] Additionally, to confirm that this effect was independent of TrkA phosphorylation, we measured RhoA activation in MDA-MB-231 cells expressing dead TrkA kinase, which cannot be phosphorylated (Fig. 5D). […]
Fig. 5 CD44v3 is implicated in the phospho-TrkA-independent activation of RhoA GTPase. Phosphorylation of TrkA was measured in the presence of a scramble peptide or CD44v3 mimetic peptide 4 (P4) in the presence or absence of NGF (A). […] Phosphorylation of TrkA and downstream Akt in wild-type MDA-MB-231 and MDA-MB-231 cells expressing kinase-dead TrkA, as determined by western blotting (D). […]

## IDDDEDFISST [Peptide 4, mimetic peptide 4 (…) corresponding to the C-terminal region of CD44v3]
  Mean donor peak (AB-FRET, RhoA activation), with NGF: 1.23
statement: NGF increased the signal with scramble peptide, not with peptide 4, listed as CD44v3 mimetic peptide 4
  NGF-induced FRET signal (RhoA activity), in words: NGF increased the FRET signal in the presence of the scramble peptide but not with CD44v3 mimetic peptide 4; also recorded: inhibits TrkA phosphorylation-independent RhoA activation induced by NGF
